From the kinase profiling compilation of Christmann-Franck et al. (2016)

Columns and labels:
Experiment in all cases: radiometric filter-binding kinase assay
PRKCZ (human) = PRKCZ (human) (UniProt Q05513)
CSNK2A1 (human) = CSNK2A1 (human) (UniProt P68400)
DCLK2 (human) = DCLK2 (human) (UniProt Q8N568)
IRAK4 (human) = IRAK4 (human) (UniProt Q9NWZ3)
MELK (human) = MELK (human) (UniProt Q14680)
PAK7 (human) = PAK7 (human) (UniProt Q9P286)
PAK4 (human) = PAK4 (human) (UniProt O96013)
RPS6KA3 KD1 KD2 (human) = RPS6KA3 KD1 KD2 (human) (UniProt P51812)
GCK (human) = GCK (human) (UniProt Q12851)
Sequence of GCK (human) (Q12851 whole entry, looked up): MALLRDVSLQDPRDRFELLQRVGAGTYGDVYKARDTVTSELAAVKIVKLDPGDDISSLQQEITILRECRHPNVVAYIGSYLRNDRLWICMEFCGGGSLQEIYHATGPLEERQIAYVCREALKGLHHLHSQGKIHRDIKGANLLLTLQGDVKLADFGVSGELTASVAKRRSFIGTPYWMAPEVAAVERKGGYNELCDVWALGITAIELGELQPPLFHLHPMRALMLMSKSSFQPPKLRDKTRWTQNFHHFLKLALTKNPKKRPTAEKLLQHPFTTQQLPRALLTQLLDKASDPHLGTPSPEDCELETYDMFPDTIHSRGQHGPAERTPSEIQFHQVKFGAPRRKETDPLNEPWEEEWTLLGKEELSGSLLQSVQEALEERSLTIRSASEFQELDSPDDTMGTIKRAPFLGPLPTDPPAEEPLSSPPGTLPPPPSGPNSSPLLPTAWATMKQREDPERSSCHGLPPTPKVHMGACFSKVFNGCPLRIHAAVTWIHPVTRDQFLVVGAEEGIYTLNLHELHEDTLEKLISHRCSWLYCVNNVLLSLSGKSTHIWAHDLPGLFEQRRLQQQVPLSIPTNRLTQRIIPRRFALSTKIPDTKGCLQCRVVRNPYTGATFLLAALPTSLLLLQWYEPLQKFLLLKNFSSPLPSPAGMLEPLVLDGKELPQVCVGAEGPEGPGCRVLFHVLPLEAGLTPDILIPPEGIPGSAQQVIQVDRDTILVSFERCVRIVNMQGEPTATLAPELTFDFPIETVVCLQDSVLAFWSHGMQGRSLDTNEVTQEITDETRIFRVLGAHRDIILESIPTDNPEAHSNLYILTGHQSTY

MARK1 (human) = MARK1 (human) (UniProt Q9P0L2)
Sequence of MARK1 (human) (Q9P0L2 whole entry, looked up): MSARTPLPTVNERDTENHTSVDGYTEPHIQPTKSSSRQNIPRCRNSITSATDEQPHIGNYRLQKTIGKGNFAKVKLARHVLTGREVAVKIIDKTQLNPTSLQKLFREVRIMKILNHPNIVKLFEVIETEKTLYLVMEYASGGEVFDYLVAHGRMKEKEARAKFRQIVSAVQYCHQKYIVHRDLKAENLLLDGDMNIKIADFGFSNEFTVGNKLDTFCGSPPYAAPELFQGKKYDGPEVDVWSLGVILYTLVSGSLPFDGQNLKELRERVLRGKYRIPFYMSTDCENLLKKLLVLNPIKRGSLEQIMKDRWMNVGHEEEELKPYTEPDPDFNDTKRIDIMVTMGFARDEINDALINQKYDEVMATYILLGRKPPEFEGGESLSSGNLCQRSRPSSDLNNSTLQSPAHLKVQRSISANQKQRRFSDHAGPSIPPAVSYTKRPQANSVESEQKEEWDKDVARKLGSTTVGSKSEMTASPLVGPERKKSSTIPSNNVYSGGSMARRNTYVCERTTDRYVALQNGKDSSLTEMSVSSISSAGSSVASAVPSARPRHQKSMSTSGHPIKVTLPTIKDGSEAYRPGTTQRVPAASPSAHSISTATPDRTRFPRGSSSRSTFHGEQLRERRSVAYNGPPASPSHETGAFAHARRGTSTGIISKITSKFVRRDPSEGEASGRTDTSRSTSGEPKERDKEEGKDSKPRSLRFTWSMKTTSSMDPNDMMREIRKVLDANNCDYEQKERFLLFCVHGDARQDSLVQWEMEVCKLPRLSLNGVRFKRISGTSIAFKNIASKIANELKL

CHEK2 (human) = CHEK2 (human) (UniProt O96017)
Sequence of CHEK2 (human) (O96017 whole entry, looked up): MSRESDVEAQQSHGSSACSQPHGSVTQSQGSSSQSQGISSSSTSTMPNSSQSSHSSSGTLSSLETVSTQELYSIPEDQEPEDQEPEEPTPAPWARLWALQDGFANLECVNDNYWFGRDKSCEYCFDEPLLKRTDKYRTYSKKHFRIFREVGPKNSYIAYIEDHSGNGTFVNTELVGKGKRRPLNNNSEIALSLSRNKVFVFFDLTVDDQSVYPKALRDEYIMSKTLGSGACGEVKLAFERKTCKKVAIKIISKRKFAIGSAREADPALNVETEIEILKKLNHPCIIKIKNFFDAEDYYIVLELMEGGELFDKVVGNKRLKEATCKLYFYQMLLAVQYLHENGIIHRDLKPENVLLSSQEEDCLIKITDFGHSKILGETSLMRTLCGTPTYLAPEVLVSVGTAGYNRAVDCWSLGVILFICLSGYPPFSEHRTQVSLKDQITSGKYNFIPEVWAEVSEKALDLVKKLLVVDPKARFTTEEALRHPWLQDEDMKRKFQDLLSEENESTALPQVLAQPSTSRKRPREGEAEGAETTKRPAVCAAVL

[1] = test system: AKT1 (human), P31749 [S473D]
Sequence of AKT1 (human), P31749 [S473D] (P31749 whole entry S473D, looked up): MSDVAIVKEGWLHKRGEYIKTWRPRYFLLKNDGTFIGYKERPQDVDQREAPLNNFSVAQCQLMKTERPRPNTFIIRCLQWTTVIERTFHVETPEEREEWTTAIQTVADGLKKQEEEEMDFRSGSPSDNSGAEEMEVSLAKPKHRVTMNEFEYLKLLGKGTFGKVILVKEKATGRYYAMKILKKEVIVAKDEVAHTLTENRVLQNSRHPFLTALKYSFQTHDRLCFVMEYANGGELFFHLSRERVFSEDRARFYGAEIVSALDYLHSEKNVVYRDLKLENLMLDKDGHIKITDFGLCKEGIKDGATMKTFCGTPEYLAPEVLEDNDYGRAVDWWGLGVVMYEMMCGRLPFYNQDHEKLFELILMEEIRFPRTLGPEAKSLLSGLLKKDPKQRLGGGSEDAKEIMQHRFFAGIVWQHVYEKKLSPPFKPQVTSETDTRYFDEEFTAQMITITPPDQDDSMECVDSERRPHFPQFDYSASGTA

EPHB4 (human) = EPHB4 (human) (UniProt P54760)
IGF1R (human) = IGF1R (human) (UniProt P08069)
MAPK12 (human) = MAPK12 (human) (UniProt P53778)
HIPK3 (human) = HIPK3 (human) (UniProt Q9H422)
[2] = biological target: STK11 CAB39 STRADA (human) (UniProt Q9Y376+Q7RTN6+Q15831)
MAPKAPK2 (human) = MAPKAPK2 (human) (UniProt P49137)
MKNK1 (human) = MKNK1 (human) (UniProt Q9BUB5)
STK3 (human) = STK3 (human) (UniProt Q13188)
PIM1 (human) = PIM1 (human) (UniProt P11309)
RPS6KA1 KD1 KD2 (human) = RPS6KA1 KD1 KD2 (human) (UniProt Q15418)
BRSK1 (human) = BRSK1 (human) (UniProt Q8TDC3)
MAPK3 (human) = MAPK3 (human) (UniProt P27361)
MAPKAPK5 (human) = MAPKAPK5 (human) (UniProt Q8IW41)
PAK6 (human) = PAK6 (human) (UniProt Q9NQU5)
Sequence of PAK6 (human) (Q9NQU5 whole entry, looked up): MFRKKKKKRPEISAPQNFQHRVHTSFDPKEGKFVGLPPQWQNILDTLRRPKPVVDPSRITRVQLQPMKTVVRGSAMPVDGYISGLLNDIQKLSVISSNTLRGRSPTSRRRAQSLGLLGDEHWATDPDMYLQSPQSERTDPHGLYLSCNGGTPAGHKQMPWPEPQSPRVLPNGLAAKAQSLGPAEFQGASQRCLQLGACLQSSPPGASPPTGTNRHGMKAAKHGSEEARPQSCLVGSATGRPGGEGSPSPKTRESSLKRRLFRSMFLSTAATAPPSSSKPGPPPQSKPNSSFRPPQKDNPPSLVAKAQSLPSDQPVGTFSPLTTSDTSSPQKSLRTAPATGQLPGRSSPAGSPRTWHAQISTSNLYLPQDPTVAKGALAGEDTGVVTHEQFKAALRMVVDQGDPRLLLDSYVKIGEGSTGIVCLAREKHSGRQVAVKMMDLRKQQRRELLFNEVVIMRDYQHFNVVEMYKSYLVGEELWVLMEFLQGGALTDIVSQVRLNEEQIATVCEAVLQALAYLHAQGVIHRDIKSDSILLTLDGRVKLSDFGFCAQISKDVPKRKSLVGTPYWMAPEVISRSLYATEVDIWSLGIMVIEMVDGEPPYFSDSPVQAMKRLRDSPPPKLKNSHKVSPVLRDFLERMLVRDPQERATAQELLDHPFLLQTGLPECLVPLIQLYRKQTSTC

MARK3 (human) = MARK3 (human) (UniProt P27448)
CLK2 (human) = CLK2 (human) (UniProt P49760)
NUAK1 (human) = NUAK1 (human) (UniProt O60285)
Sequence of NUAK1 (human) (O60285 whole entry, looked up): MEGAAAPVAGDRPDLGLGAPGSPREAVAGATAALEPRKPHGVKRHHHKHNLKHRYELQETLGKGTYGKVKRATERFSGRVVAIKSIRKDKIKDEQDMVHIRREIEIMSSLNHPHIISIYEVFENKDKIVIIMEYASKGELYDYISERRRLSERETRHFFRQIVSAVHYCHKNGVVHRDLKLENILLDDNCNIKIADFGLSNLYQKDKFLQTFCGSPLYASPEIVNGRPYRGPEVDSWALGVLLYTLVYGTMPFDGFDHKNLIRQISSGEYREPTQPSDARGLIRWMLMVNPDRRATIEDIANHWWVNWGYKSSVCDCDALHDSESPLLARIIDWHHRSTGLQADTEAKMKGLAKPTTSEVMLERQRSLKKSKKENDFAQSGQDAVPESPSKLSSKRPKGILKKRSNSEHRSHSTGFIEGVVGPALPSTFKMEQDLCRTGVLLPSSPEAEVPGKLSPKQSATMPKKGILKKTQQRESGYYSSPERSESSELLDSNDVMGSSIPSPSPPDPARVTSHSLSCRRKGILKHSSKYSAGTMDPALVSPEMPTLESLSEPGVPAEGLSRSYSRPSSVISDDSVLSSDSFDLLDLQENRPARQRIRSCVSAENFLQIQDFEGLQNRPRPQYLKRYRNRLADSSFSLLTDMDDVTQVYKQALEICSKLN

PIM2 (human) = PIM2 (human) (UniProt Q9P1W9)
CAMKK2 (human) = CAMKK2 (human) (UniProt Q96RR4)
PHKG1 (human) = PHKG1 (human) (UniProt Q16816)
MAPK13 (human) = MAPK13 (human) (UniProt O15264)
Sequence of MAPK13 (human) (O15264 whole entry, looked up): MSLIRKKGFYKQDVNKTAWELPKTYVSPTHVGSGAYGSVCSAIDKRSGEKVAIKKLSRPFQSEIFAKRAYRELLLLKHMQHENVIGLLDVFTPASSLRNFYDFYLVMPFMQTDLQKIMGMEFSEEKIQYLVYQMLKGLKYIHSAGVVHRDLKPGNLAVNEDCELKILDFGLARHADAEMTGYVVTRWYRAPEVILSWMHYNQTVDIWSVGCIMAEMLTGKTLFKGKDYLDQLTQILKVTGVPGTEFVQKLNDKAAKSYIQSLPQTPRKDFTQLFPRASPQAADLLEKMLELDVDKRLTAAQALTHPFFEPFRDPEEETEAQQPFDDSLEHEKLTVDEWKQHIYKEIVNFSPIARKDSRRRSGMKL

Sequence of PRKCZ (human) (Q05513 whole entry, looked up): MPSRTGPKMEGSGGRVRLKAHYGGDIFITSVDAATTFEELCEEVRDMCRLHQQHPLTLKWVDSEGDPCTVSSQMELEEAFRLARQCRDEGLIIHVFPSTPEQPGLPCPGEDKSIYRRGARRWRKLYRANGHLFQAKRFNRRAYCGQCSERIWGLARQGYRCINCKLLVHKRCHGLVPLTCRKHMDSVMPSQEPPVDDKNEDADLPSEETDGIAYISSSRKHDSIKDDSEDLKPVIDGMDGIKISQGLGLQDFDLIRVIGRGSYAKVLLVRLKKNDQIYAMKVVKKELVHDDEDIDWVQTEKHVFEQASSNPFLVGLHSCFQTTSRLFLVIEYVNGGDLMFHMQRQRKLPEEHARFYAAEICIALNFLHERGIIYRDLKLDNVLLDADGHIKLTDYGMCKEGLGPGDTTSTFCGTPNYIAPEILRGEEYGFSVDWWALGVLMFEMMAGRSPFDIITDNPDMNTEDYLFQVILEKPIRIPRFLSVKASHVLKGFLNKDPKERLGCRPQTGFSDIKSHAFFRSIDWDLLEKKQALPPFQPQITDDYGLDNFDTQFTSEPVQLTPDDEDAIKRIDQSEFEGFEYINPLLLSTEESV

With `COc1cc(C(=O)N2CCC(N3CCN(C)CC3)CC2)ccc1Nc1ncc2c(n1)N(C)c1ccccc1C(=O)N2C` the residual activity (PRKCZ (human); compound 1.0 µM) was 94%, the residual activity (PRKCZ (human); compound 10.0 µM) was 104% and the residual activity (CSNK2A1 (human); compound 1.0 µM) was 71%. It also gave a residual activity (CSNK2A1 (human); compound 10.0 µM) of 80%, an IC50 (DCLK2 (human)) of 210 nM and a residual activity (IRAK4 (human); compound 1.0 µM) of 93%. For the same molecule, the residual activity (IRAK4 (human); compound 10.0 µM) was 94%, the residual activity (MELK (human); compound 1.0 µM) was 88% and the residual activity (MELK (human); compound 10.0 µM) was 92%. The residual activity (PAK7 (human); compound 1.0 µM) was 84%, the residual activity (PAK7 (human); compound 10.0 µM) was 89% and the residual activity (PAK4 (human); compound 1.0 µM) was 94%. The residual activity (PAK4 (human); compound 10.0 µM) was 108%, the residual activity (RPS6KA3 KD1 KD2 (human); compound 1.0 µM) was 84% and the residual activity (RPS6KA3 KD1 KD2 (human); compound 10.0 µM) was 59%. For the same molecule, the residual activity (GCK (human); compound 1.0 µM) was 93%, the residual activity (GCK (human); compound 10.0 µM) was 99% and the residual activity (MARK1 (human); compound 1.0 µM) was 89%. For the same molecule, the residual activity (MARK1 (human); compound 10.0 µM) was 93%, the IC50 (CHEK2 (human)) was 2000 nM and the residual activity (CHEK2 (human); compound 1.0 µM) was 38%. It also gave a residual activity (CHEK2 (human); compound 10.0 µM) of 13%, a residual activity ([1]; compound 1.0 µM) of 71% and a residual activity ([1]; compound 10.0 µM) of 81%. For the same molecule, the residual activity (EPHB4 (human); compound 1.0 µM) was 90%, the residual activity (EPHB4 (human); compound 10.0 µM) was 107% and the residual activity (IGF1R (human); compound 1.0 µM) was 107%. The residual activity (IGF1R (human); compound 10.0 µM) was 90%, the residual activity (MAPK12 (human); compound 1.0 µM) was 90% and the residual activity (MAPK12 (human); compound 10.0 µM) was 106%. For the same molecule, the residual activity (HIPK3 (human); compound 1.0 µM) was 90%, the residual activity (HIPK3 (human); compound 10.0 µM) was 102% and the residual activity ([2]; compound 1.0 µM) was 78%. It also gave a residual activity ([2]; compound 10.0 µM) of 78%, a residual activity (MAPKAPK2 (human); compound 1.0 µM) of 86% and a residual activity (MAPKAPK2 (human); compound 10.0 µM) of 84%. For the same molecule, the residual activity (MKNK1 (human); compound 1.0 µM) was 86%, the residual activity (MKNK1 (human); compound 10.0 µM) was 53% and the residual activity (STK3 (human); compound 1.0 µM) was 100%. The residual activity (STK3 (human); compound 10.0 µM) was 98%, the residual activity (PIM1 (human); compound 1.0 µM) was 94% and the residual activity (PIM1 (human); compound 10.0 µM) was 87%. For the same molecule, the residual activity (RPS6KA1 KD1 KD2 (human); compound 1.0 µM) was 97%, the residual activity (RPS6KA1 KD1 KD2 (human); compound 10.0 µM) was 367% and the residual activity (BRSK1 (human); compound 1.0 µM) was 83%. For the same molecule, the residual activity (BRSK1 (human); compound 10.0 µM) was 78%, the residual activity (MAPK3 (human); compound 1.0 µM) was 105% and the residual activity (MAPK3 (human); compound 10.0 µM) was 104%. The residual activity (MAPKAPK5 (human); compound 1.0 µM) was 102%, the residual activity (MAPKAPK5 (human); compound 10.0 µM) was 107% and the residual activity (PAK6 (human); compound 1.0 µM) was 94%. For the same molecule, the residual activity (PAK6 (human); compound 10.0 µM) was 89%, the residual activity (MARK3 (human); compound 1.0 µM) was 100% and the residual activity (MARK3 (human); compound 10.0 µM) was 105%. The residual activity (CLK2 (human); compound 1.0 µM) was 76%, the residual activity (CLK2 (human); compound 10.0 µM) was 69% and the IC50 (NUAK1 (human)) was 5000 nM. For the same molecule, the residual activity (NUAK1 (human); compound 1.0 µM) was 50%, the residual activity (NUAK1 (human); compound 10.0 µM) was 19% and the residual activity (PIM2 (human); compound 1.0 µM) was 87%. The residual activity (PIM2 (human); compound 10.0 µM) was 97%, the residual activity (CAMKK2 (human); compound 1.0 µM) was 89% and the residual activity (CAMKK2 (human); compound 10.0 µM) was 53%. For the same molecule, the residual activity (PHKG1 (human); compound 1.0 µM) was 98%, the residual activity (PHKG1 (human); compound 10.0 µM) was 59% and the residual activity (MAPK13 (human); compound 1.0 µM) was 102%. The residual activity (MAPK13 (human); compound 10.0 µM) was 106%.
